For this data set the following is noted: 101.33 kPa, Liquid; for speed of sound: Sing-around technique in a fixed-path interferometer; for mass density: Vibrating tube method.

Experimental findings from the NIST ThermoML archive (doi:10.1016/j.jct.2011.05.003) are described below.

What is called speed of sound is how fast a sound wave travels through the sample. In general, mass density refers to mass per unit of volume.

Numbers after ± are expanded uncertainties.

Consider `CCCNCCC` [dipropylamine], for which the speed of sound came out at 1209.4 ± 1.2 m/s (293.15 K), 1188 ± 1.2 m/s (298.15 K) and 1167.6 ± 1.2 m/s (303.15 K). The mass density (293.15 K) is recorded as 738.259 ± 0.25 kg/m3 and the mass density (298.15 K) came out at 733.81 ± 0.25 kg/m3.

Regarding `CCCCNCCCC` [dibutylamine], the speed of sound reads like this: (293.15 K) 1261.2 ± 0.83 m/s; (298.15 K) 1241.4 ± 0.82 m/s; (303.15 K) 1222.2 ± 0.82 m/s. The mass density reads like this: (293.15 K) 759.529 ± 0.16 kg/m3; (298.15 K) 755.577 ± 0.16 kg/m3; (303.15 K) 751.407 ± 0.16 kg/m3.

Regarding `CCN(CC)CC` [triethylamine], the speed of sound runs as follows: (293.15 K) 1132.5 ± 0.8 m/s; (298.15 K) 1110.9 ± 0.8 m/s; (303.15 K) 1090.7 ± 0.78 m/s. For the same molecule, the mass density runs as follows: (293.15 K) 727.333 ± 0.17 kg/m3; (298.15 K) 722.729 ± 0.17 kg/m3; (303.15 K) 718.092 ± 0.17 kg/m3.

For `CCCCCC(C)=O` [2-heptanone], the speed of sound amounted to 1281.9 ± 1.2 m/s (293.15 K), 1262.5 ± 1.2 m/s (298.15 K) and 1244.1 ± 1.2 m/s (303.15 K). For the same molecule, the mass density stood at 815.433 ± 0.24 kg/m3 (293.15 K), 811.139 ± 0.24 kg/m3 (298.15 K) and 806.827 ± 0.24 kg/m3 (303.15 K).
